One assay addresses T1, human ACAT1 (Homo sapiens, UniProt P35610, Q526R).
T1 construct: expressed in transfected cells
T1 sequence (P35610 1-550 Q526R): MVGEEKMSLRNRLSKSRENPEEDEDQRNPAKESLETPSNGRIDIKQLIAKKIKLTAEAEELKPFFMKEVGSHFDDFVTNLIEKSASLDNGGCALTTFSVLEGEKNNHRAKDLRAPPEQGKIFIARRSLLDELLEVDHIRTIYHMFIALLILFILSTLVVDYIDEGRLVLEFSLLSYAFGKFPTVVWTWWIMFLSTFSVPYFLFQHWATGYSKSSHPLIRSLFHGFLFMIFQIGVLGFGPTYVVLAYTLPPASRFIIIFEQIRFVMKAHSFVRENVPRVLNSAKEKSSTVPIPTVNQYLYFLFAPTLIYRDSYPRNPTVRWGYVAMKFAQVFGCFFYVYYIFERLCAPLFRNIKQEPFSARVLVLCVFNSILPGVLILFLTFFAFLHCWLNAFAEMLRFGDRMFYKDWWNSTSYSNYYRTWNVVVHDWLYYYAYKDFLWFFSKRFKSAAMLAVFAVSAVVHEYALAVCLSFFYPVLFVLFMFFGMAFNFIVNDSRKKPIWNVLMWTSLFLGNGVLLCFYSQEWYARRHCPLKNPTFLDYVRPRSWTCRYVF
The assay can be described thus: Fluorescent cell-based assay measuring esterification of NBD-cholesterol in AC29 cells expressing huACAT1. An excerpt: In the methods described herein, the agent inhibits the ability of huACAT1 to catalyze the esterification of free cholesterol into cholesteryl ester. […] AC29 cells lack endogenous ACAT1 activity and are transfected to express human ACAT1. The assay uses 22-[N-(7-nitrobenz-2-oxa-1,3-diazol-4-yl)amino]-23,24-bisnor-5-cholen-3-ol (NBD-cholesterol), a fluorescent sterol analog in which the NBD moiety replaces the terminal segment of the alkyl tail of cholesterol. […] In a polar environment, NBD-cholesterol is weakly fluorescent. In a nonpolar environment, NBD-cholesterol is strongly fluorescent. The fluorescent property of NBD-cholesterol is used to measure ACAT activity, as cholesterol is a polar lipid and cholesteryl ester is nonpolar. Untransfected AC29 cells or AC29 cells expressing huACAT1 treated with a known ACAT inhibitor can be used to determine background fluorescence due to free-NBD-cholesterol.
(§1) Cells were maintained in monolayer at 37° C. in 5% CO2 in Ham's F-12 medium supplemented with 1% Eagle's vitamins, penicillin (100 units/ml), streptomycin (100 μg/ml), and 10% heat-inactivated fetal bovine serum, and cells were typically grown to 70-90% confluence for all experiments.
(§2) Human ACAT1 activity was assessed using a fluorescent cell-based assay as described in Lada et al. (supra). The assay uses 22-[N-(7-nitrobenz-2-oxa-1,3-diazol-4-yl)amino]-23,24-bisnor-5-cholen-3-ol (NBD-cholesterol), a fluorescent sterol analog in which the NBD moiety replaces the terminal segment of the alkyl tail of cholesterol. […] In a polar environment, NBD-cholesterol is weakly fluorescent. In a nonpolar environment, NBD-cholesterol strongly is strongly fluorescent. The fluorescent property of NBD-cholesterol is used to measure ACAT activity, as cholesterol is a polar lipid and cholesteryl ester is nonpolar. 3×10^5 cells per well were plated on Falcon 96-well culture plates and allowed to recover overnight. Assays were performed with cells that are at least 80% confluent. Media was aspirated and wells were pre-incubated with 100 μL of dilutions of control and test compounds from 1000× stock solutions in DMSO (or other neutral diluent e.g., methanol, ethanol, or water) for 20 minutes. Media was removed and replaced with 100 μL of medium containing the same dilution of compound or vehicle as in the pre-incubation and 1 μg/ml NBD-cholesterol and incubated for 6 hr at 37° C. (Lada et al., supra). […] Parental AC29 cells incubated with NBD-cholesterol or ACAT1-expressing cells incubated with NBD-cholesterol and the […] were used to determine background fluorescence attributable to free NBD-cholesterol. After incubation, medium is removed, and the cells were washed two times with cold balanced salt solution (BSS). […] Cholesteryl ester (CE) fluorescence was calculated by subtracting the background from the total fluorescence, and these values were normalized by cellular protein.

A further assay deals with T2, human ACAT2 (Homo sapiens, UniProt O75908).
T2 sequence (O75908 1-522): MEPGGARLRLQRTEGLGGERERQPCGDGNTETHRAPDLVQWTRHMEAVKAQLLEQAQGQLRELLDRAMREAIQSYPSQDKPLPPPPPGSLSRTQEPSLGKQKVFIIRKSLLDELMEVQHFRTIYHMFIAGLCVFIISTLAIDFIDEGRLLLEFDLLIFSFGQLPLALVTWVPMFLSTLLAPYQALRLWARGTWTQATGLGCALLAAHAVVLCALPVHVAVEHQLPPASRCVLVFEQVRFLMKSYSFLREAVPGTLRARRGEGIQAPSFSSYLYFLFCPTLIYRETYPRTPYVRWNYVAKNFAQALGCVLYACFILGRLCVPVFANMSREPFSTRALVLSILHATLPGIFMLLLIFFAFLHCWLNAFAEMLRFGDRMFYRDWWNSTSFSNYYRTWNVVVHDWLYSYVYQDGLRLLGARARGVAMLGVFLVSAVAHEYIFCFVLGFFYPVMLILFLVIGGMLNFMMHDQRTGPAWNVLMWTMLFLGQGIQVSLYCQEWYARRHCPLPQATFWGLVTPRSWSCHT
The assay can be described thus: Fluorescent NBD-cholesterol esterification assay in AC29 stable transfectants, Table 2. The assay is classed as cell-based. As for the experimental part:
[The procedure below names another target; the source lists this target under the same test.] as §1, §2

The test system of assay [1] is H295R cells. The assay can be described thus: XBP-1 splicing (unfolded protein response) in H295R cells with exogenous cholesterol. Particulars: compound at its ACAT1 IC50 concentration, 45 ug/mL exogenous cholesterol, 5 hours. Format: cell-based, human. As to the method:
Treatment of H295R cells by an agent can result in chronic disruption of cholesterol homeostasis that may lead to activation of the UPR and/or triggering of the programmed cell death response and the induction apoptotic markers.
H295R adrenocortical cells are plated at 500,000 cells/well in a 12-well culture plate as described in Example 8. […]. After 5 hours of treatment, RNA is extracted using the Qiagen RNEasy® Plus kit and 1 μg RNA is reverse transcribed using Applied Biosystems® High-Capacity cDNA Reverse Transcription Kit. XBP-1 splicing product is amplified by PCR using primer pairs that allow detection of the activated isoform (5′-[…]-3′ (SEQ ID NO:15) and 5′-[…]-3′ (SEQ ID NO:16)) under the following conditions: 1) 95° C. for 30 sec, 2) 95° C. for 15 sec; 3) 50° C. for 15 sec, 4) 68° C. for 30 sec. […] Amplification steps 2 through 4 are repeated for 30 cycles. PCR product is resolved on a 5% agarose gel. DTT treated cells serve as a positive control for XBP-1 splicing. An increase in the XBP-1 splice variant expression of greater than 20% is considered significant.

The subject of assay [2] is H295R cells. In words: Caspase-3/7 activity (Apotox-Glo) in H295R cells with exogenous cholesterol. The assay is classed as cell-based, human. Particulars: compound at its ACAT1 IC50 concentration, 45 ug/mL exogenous cholesterol, 5 hours. As to the method:
Commercially-available assay kits may also be employed to measure Caspase 3/7 activity, including for example the Apotox-Glo Assay Kit (Promega). […] H295R cells are plated at 500,000 cells/well in a 12 well plate. After overnight incubation at 37° C., media is removed and replaced with media containing vehicle (DMSO) or one of the ACAT1 inhibitors at its ACAT1 IC50 concentration in the presence of 45 ug/mL exogenous cholesterol. After 5 hours of treatment, cells are harvested, washed and assayed for Caspase-3/7 activity using the Apotox-Glo Assay Kit (Promega).

A further assay deals with H295R. In words: Free and esterified cholesterol in H295R cells with exogenous cholesterol. Format: cell-based, human. Particulars: compound at its ACAT1 IC50 concentration, 45 μg/ml cholesterol. As to the method: In this study, H295R were plated at 200,000 cells/well in a 24 well plate. After overnight incubation at 37° C., media was removed and replaced with treatment media (test compound at its ACAT1 IC50 concentrations containing 45 μg/ml cholesterol) or vehicle (DMSO). After treatment of cells for various lengths of time (minutes to hours), media was removed and cells are washed twice with cold PBS. 200 ul of hexane/isopropanol (3:2) was then added to each well, the plate was rocked at room temperature for 1 hour, and the supernatant was transferred to glass vials and allowed to air dry. Residual lipids were resuspended and total cholesterol and free cholesterol were measured using the Cholesterol Fluorometric Assay Kit (Cayman Chemical). Cholesterol ester was determined by subtracting free cholesterol from total cholesterol.

The subject of the next assay is adrenocortical cells. Particulars: as reported in the literature; cited from earlier work.
Assay [3] relates to adrenocortical carcinoma (ACC). As to conditions: cited from earlier work.
Setting [4] is: Table 2, first IC50 column, AC29 cells expressing huACAT1, 1 μg/ml NBD-cholesterol, 6 hr, read-out: IC50 huACAT1.
Where [5] appears, read: Table 2, second IC50 column (head repeats huACAT1), AC29 transfectants, NBD-cholesterol, read-out: IC50 huACAT1.
The mark [6] stands for this setting: Table 3, determined as described in Example 1, read-out: ACAT1 IC50.

The term IC50 denotes the midpoint of a concentration-inhibition curve.

Like-named read-outs stand apart in the source and are kept apart here.

Regarding `CC(C)c1cccc(C(C)C)c1OC(=O)NS(=O)(=O)Oc1c(C(C)C)cccc1C(C)C` [Compound 1], the IC50 against human ACAT1 worked out at 2400 nM; at human ACAT2, 440 nM.
Regarding `CCCCCCCCCCCCCOC(=O)C(C(=O)Nc1c(C(C)C)cccc1C(C)C)c1ccccc1` (centres unmarked) [Compound 2], the IC50 at human ACAT1 (setting [4]) stood at 20 nM; on human ACAT2 (setting [5]), 21 nM.
Regarding `CCCCCCCCCCCCn1nnc(C(C(=O)Nc2c(C(C)C)cccc2C(C)C)c2ccccc2)n1` (centres unmarked) [Compound 3, 2H-Tetrazole-5-acetamide, N-[2,6-bis(1-methylethyl)phenyl]-2-dodecyl-a-phenyl-], in the assay with H295R cells [1], the “splicing of XBP-1 compared to vehicle” value is listed as “significant splicing of XBP-1”. The 50% inhibitory concentration (IC50) at human ACAT1 (setting [4]) was found to be 2000 nM; on human ACAT1 (setting [6]), 11 nM; on human ACAT2 (setting [5]) it was 510 nM. The “Caspase-3/7 activity compared to vehicle” value in the assay on H295R cells [2] was “significant increases”. In addition, the “free cholesterol compared to vehicle” value with H295R is given as “increase in free cholesterol”. In the assay on adrenocortical cells, the Adrenal activity result is “Adrenal acting”.
Take `Cc1ccc2oc(CN(Cc3ccccc3)C(=O)Nc3c(F)cc(F)cc3F)c(-c3ccc(Cl)cc3)c2c1` [Compound 5]: the “splicing of XBP-1 compared to vehicle” value in the assay on H295R cells [1] is listed as “significant splicing of XBP-1”. Besides, the IC50 stood at 6 nM at human ACAT1 (setting [4]), 10 nM at human ACAT1 (setting [6]) and 80 nM on human ACAT2 (setting [5]). The “Caspase-3/7 activity compared to vehicle” value with H295R cells [2] is listed as “significant increases”. In addition, the “free cholesterol compared to vehicle” value in the assay on H295R is “increase in free cholesterol”. The Adrenal activity result with adrenocortical cells was “Adrenal acting”.
As for `CCCCC[C@H]1C=C[C@@H](CCCCC)SC1[C@@H](C)Nc1c(SC)cc(C)nc1SC` (some centres unmarked) [Compound 6], the 50% inhibitory concentration (IC50) stood at 1.8 nM on human ACAT1 (setting [4]) and 18 nM on human ACAT2 (setting [5]).
For `CCCCCCCCC(C)(C)C(=O)Nc1c(OC)cc(OC)cc1OC` [Compound 7], on human ACAT1 (setting [4]), the half-maximal inhibitory concentration (IC50) came out at 540 nM.
On to `Clc1ccc(C(c2ccccc2Cl)C(Cl)Cl)cc1` (centres unmarked) [mitotane], for which the “delay of disease progression, average” value in assay [3] (ACC patients that derive a therapeutic benefit) was “five”. Besides, the “share of patients with increased progression-free survival” value in assay [3] (ACC patients) is recorded as “one-quarter to one-third”.

Source of the values: patent US20150087649A1, “TREATING DISORDERS ASSOCIATED WITH ABERRANT ADRENOCORTICAL CELL BEHAVIOR” (Atterocor, Inc., priority 2013, published 2015).
